Assay results published in patent publication US10464930B2, “Compositions and methods for treating estrogen-related medical disorders” (THE BOARD OF TRUSTEES OF THE UNIVERSITY OF ILLINOIS, priority 2012, dated 2019).
Where two headings read alike, the source gives them in different places.

Key:
[1] = tested on: LTP in the CA1 region of hippocampal sections; assay: LTP after theta burst stimulation in hippocampal slices; parameters: species or system mouse; conditions: for end average potentiation of fEPSP (LTP): 30 min prior to TBS, slices of 16-month male 3×Tg mice
Description: LTP was measured after TBS in the CA1 region of hippocampal sections from 16 month male 3×Tg mice or WT controls. Test compounds (SERMs 100 nM; G15 100 nM) were added 30 min prior to TBS. […] (C) Secondary analysis of theta bursts indicate action both during induction and stabilization of LTP, through a GPR30 dependent mechanism.
LTP was measured after TBS in the CA1 region of hippocampal sections from 8 month old male C57Bl/6 mice. G15 (100 nM) was added 30 min prior to TBS and continued throughout. G15 had no effect on LTP, which reached levels equal to WT background in FIG. 2 for both controls and G15.
LTP was measured in the CA1 region of hippocampal sections from 16 month male 3×Tg mice using the method detailed in manuscript, with the exception of a variable interburst interval during TBS. ODQ (10 nM) was added 30 min prior to TBS and continued throughout.
Electrophysiology. All experiments used 16-month old male 3×Tg transgenic or age-matched WT background controls. For electrophysiology, mice were rapidly decapitated, and brains were removed into an ice-cold aCSF solution (in mM: NaCl 124, KCl 3.0, KH2PO4 1.25, NaHCO3 25.7, D-glucose 10, L-ascorbate 2.0, MgSO4 2.5, and CaCl2 3.3) and sectioned on a tissue chopper into 400 um sections. Slices were transported to a 37° C. solution of aCSF, continuously bubbled with 95% O2/5% CO2, and allowed to recover at least 60 min before experimentation. After placement of a stimulation electrode in the Schaffer commissural fibers and recording electrodes with 2 M NaCl solution into the stratum radiatum of the CA1 area, stimulus intensity was set to evoke submaximal fEPSP and continuously monitored at 20 s intervals for at least 15 min to establish a stable baseline. SERMs (100 nM) and G15 (100 nM) were prepared fresh in perfusate and started at least 30 min before LTP induction to reach a new baseline after enhancement of basal synaptic transmission was observed(97). LTP was induced using a theta burst induction protocol by applying 10 bursts of four pulses at 100 Hz with an interburst interval of 200 msec. Resulting fEPSP was monitored at 20 s intervals for […] post TBS.
Long-term potentiation (LTP) in the CA1 field of the hippocampus is a well-studied cellular model for learning and memory. […] At 16 months, an advanced age at which Alzheimer's-like neuropathology is well developed in these animals, studies on LTP have not previously been reported. We observed a robust, reproducible deficit in LTP in these aged transgenic mice, with field excitatory post-synaptic potentials (fEPSP) showing an end average potentiation of 97.0±6.4% of baseline at 45 min post-TBS, compared to 134.7±10.3% observed in the wild type (WT) controls (FIG. 2A,B).
To determine if drugs enhanced LTP by altering physiological responses during LTP induction, such as NMDA receptor-mediated currents or downstream events involved in expression or stabilization, the postsynaptic responses to theta bursts were quantified as previously described (56, 57).

[2] = tested on: primary cortical neurons exposed to OGD; assay: Oxygen glucose deprivation (OGD) neuroprotection, MTT; format: cell-based, rat; conditions: for neuroprotection (cell survival by MTT): 2 h OGD, survival at 24 h, SERMs 100 nM, normalized to E2 10 nM; for neuroprotective activity with GPR30 antagonist: plus G15 (100 nM); for neuroprotective activity with GPR blocker: plus pertussis toxin (100 ng/mL)
[3] = CNS bioavailability by LC-MS/MS; format: in vivo, mouse; conditions: 5 mg/kg i.p., up to 2 h after administration
Description: (§1) CNS Bioavailability & NOX Measurement. All experiments were performed on either male C57B1/6 mice (Charles River Laboratory) or eNOS(−/−) animals. Animals were injected (i.p.) at various time points before sacrifice at the doses specified. After euthanasia via CO2, plasma was collected, and cortices and hippocampi were collected after PBS perfusion and stored at −80° C. Tissue samples were weighed and extracted with methanol. Plasma samples were extracted with cold acetonitrile. Quantitative analysis of drug concentrations in plasma and brain used internal standards spiked into plasma and brain homogenates before liquid extraction with acetonitrile or methanol, and separation and measurement was performed with LC-MS/MS tandem mass spectrometry. The supernatant (deproteinized) was analyzed by chemiluminescence with SIEVERS 280i nitric oxide analyzer.
(§2) Brain and plasma NO levels were assessed by measuring metabolic oxidation products, NO2^− and NO3^− (NOx), using chemiluminescence detection. […] To assess the relative contribution of eNOS, DMA and NO-DMA were administered to eNOS(−/−) animals.

[4] = tested on: NO levels (NOx) in plasma and hippocampus; assay: NOx measurement in plasma and CNS by chemiluminescence; format: in vivo, mouse; conditions: 2 mg/kg; for NOx in plasma or hippocampus, eNOS(−/−): eNOS(−/−) animals; for NOx in hippocampus and plasma, WT: one hour after injection, WT mice
Description: Levels of NO were assessed by measuring breakdown products 1 h after i.p. injection of SERMs (2 mg/kg) using chemiluminescence detection.
as §1, §2

[5] = tested on: scopolamine- or L-NAME-induced memory deficit; assay: Step through passive avoidance (STPA); format: in vivo, mouse; conditions: for reversal of scopolamine-induced memory deficit (STPA latency): 2 mg/kg i.p. 20 min prior to training, scopolamine 1 mg/kg, C57Bl/6, 24 h; for reversal of L-NAME-induced cognitive deficit (STPA) / reversal of scopolamine-induced deficit in eNOS KO mice (STPA): 2 mg/kg; for reversal of L-NAME-induced cognitive deficit (STPA): L-NAME 50 mg/kg 30 min prior to training
[6] = tested on: clotting cascades (PT, aPTT); assay: Anticoagulation: PT and aPTT after i.p. dosing; format: in vivo, mouse; conditions: for anticoagulation with impaired NOS function: 2 mg/kg 1 h prior, L-NAME 50 mg/kg 30 m prior to collection; for PT / aPTT / anticoagulant effect at 3 h: 2 mg/kg i.p.; for PT / aPTT: 1 h
Description: Blood was collected by cardiac puncture and PTT and aPTT were determined 1 or 3 h after i.p. drug administration (2 mg/kg).
Anticoagulation. SERMs were injected (i.p.) 1 h before blood collection, and L-NAME was injected (i.p.) 30 min before blood collection. The mouse was sedated by exposing it to CO2 until unconscious and blood was collected in 4.5 mL BD Vacutainer Glass Evacuated Blood Collection Tubes (with 0.105 M buffered sodium citrate) by cardiac puncture. The blood samples were centrifuged at 300 g for 30 min to separate the plasma from the blood, and then 200 uL of plasma was taken from each sample and the PT and aPTT were measured using an ACL 7000 Coagulation Analyzer. The analyzer injects […] of PT-fibrinogen (lyophilized rabbit brain calcium thromboplastin with stabilizers, polybrene, buffer and preservatives) to 75 μL of plasma sample to measure the PT, and 75 μL of synthAFAX (0.025 M)+100 μL of CaCl2 (0.02 M) were added to 75 μL of plasma to measure aPTT. The analysis was at 37° C. using a photo sensor at λ=671 nm.

isolated aortic rings = assay: Aortic ring relaxation
ERα = biological target: T1, ERα (Homo sapiens, UniProt P03372); assay: ER ligand binding by competitive E2 displacement (ERα)
T1 sequence (P03372 1-595): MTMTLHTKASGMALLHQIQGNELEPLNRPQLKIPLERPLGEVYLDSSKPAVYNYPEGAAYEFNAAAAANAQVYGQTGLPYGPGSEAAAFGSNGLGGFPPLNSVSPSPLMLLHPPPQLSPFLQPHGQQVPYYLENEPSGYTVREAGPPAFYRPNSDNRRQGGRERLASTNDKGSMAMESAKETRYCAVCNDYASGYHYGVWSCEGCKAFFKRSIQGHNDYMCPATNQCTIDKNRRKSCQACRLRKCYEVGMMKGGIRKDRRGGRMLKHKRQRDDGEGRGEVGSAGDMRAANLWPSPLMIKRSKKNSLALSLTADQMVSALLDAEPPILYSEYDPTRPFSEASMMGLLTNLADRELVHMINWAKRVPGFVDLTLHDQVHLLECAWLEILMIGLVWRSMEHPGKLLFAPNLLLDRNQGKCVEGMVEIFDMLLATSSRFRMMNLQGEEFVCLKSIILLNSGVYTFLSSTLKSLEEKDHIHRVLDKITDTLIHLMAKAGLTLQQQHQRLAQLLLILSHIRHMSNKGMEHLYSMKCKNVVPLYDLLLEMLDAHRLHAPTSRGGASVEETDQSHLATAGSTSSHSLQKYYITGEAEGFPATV

ERβ = ERβ (Homo sapiens, UniProt Q92731); assay: ER ligand binding by competitive E2 displacement (ERβ)
[7] = Rattus norvegicus, read-out: EC50 for relaxation

Chain of ERβ (Q92731 whole entry, species assumed): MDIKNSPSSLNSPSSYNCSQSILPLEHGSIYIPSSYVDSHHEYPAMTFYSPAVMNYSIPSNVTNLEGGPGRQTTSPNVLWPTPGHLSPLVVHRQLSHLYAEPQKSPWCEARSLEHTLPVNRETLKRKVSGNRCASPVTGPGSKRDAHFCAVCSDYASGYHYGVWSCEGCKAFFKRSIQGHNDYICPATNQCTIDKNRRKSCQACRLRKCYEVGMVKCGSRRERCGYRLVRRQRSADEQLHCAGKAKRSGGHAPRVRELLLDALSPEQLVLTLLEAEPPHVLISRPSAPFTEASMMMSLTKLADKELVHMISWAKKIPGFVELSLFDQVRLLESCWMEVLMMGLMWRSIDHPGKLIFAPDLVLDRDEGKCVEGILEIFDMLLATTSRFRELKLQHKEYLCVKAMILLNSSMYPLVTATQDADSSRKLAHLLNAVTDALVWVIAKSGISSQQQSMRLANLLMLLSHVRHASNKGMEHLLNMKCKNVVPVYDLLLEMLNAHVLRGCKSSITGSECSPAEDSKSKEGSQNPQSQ

SMILES	neuroprotection (cell survival by MTT) [2]	neuroprotective activity with GPR30 antagonist [2]	neuroprotective activity with GPR blocker [2]	enhancement of subsequent theta bursts during LTP induction ([1]; 100 nM, 3×Tg slices)	end average potentiation of fEPSP (LTP) ([1]; 100 nM)	NOx in plasma or hippocampus, eNOS(−/−) [4]	NOx in hippocampus and plasma, WT [4]	reversal of scopolamine-induced memory deficit (STPA latency) [5]	reversal of L-NAME-induced cognitive deficit (STPA) [5]	reversal of scopolamine-induced deficit in eNOS KO mice (STPA) [5]	anticoagulation with impaired NOS function [6]	PT [6]	aPTT [6]	anticoagulant effect at 3 h [6]	EC50 (isolated aortic rings; [7]) [nM]	efficacy (relaxation) (isolated aortic rings; intact aortic rings) [%]	other results
Brc1cc2c(cc1[C@@H]1Nc3ccccc3[C@@H]3C=CC[C@@H]31)OCO2 [Compound G15]																	effect on LTP in WT slices ([1]; 100 nM, WT C57Bl/6 slices, absence of DMA): no effect
Oc1ccc(-c2sc3cc(O)ccc3c2Oc2ccc(OCCN3CCCCC3)cc2)cc1 [DMA, desmethylarzoxifene]	robust neuroprotection	blocked	blocked	augmented	144.9±8.7 % of baseline	no effect	greater than twofold elevation	restored the cognitive deficit	not able to restore cognition	not able to restore cognition	did not persist in the presence of NOS blockade	increased PT	significantly increased	decreased to that of control samples	3500 ± 2500	~100	end fEPSP (LTP) with GPR30 blocker ([1]; DMA 100 nM plus G15 (100 nM), 3×Tg slices): 96.8±7.10%; effect on LTP with ODQ ([1]; plus ODQ (10 nM), 3×Tg slices, preliminary): ODQ blocks effect of DMA; brain regional retention [3]: preferential retention in the hippocampus over the cortex; efficacy after endothelium removal or NOS inhibition (isolated aortic rings; removal of the endothelium or L-NAME): significant decrease in the efficacy
Oc1ccc2c(Oc3ccc(OCCN4CCCCC4)cc3)c(-c3ccc(F)cc3)sc2c1 [F-DMA]																	IC50 (ERα; competitive E2 displacement): 17 ± 0.6 nM; EC50 (isolated aortic rings; read-out: EC50 for relaxation, intact aortic rings, mean, S.D.): 2400 ± 1200 nM
O=[N+]([O-])OCCCC1CCN(CCOc2ccc(Oc3c(-c4ccc(O)cc4)sc4cc(O)ccc34)cc2)CC1 [NO-DMA, 3-(1-(2-(4-(6-hydroxy-2-(4-hydroxyphenyl)benzo[b]thiophen-3-yloxy)phenoxy)ethyl)piperidin-4-yl)propyl nitrate]	robust neuroprotection identical to DMA	blocked	blocked	augmented	144.2±5.2 % of baseline	increase NOx significantly	greater than twofold elevation	equivalent restoration of protection to DMA	reversed only by NO-DMA	only NO-DMA showed efficacy	significant anticoagulation compared to control	increased PT, but only NO-DMA reached significance	significantly increased	remained significantly higher than control	130 ± 90		IC50 (ERα): 21.4 ± 6.7 nM; IC50 (ERβ): 24.4 ± 9.6 nM; neuroprotection with ERα blockade ([2]; plus ICI 182780 (100 nM), added 45 min prior to OGD): did not block this effect; attenuation of neuroprotective activity by NOS antagonist ([2]; plus L-NAME (100 μM)): ineffective; attenuation of neuroprotective activity by PI3K inhibitor ([2]; plus LY294002 (10 μM)): effective; EC50 (isolated aortic rings; Rattus norvegicus, read-out: EC50 for relaxation, L-NAME): 1000 ± 540 nM; EC50 (isolated aortic rings; Rattus norvegicus, read-out: EC50 for relaxation, endothelium-denuded): 900 ± 690 nM; maximal relaxation response (isolated aortic rings; intact aortic rings): induced maximal relaxation; potency relative to DMA (isolated aortic rings; intact aortic rings): at least ten-fold increased potency
COc1ccc(-c2sc3cc(O)ccc3c2Oc2ccc(OCCN3CCCCC3)cc2)cc1 [arzoxifene]								restored the cognitive deficit							3300 ± 2500		
O=C(c1ccc(OCCN2CCCCC2)cc1)c1c(-c2ccc(O)cc2)sc2cc(O)ccc12 [raloxifene, Raloxifene]								restored the cognitive deficit							4000 ± 2900	~100	
